Results reported in US7579469B2, “Glucocorticoid mimetics, methods of making them, pharmaceutical compositions, and uses thereof” (Boehringer Ingelheim Pharmaceuticals, Inc., priority 2003, dated 2009).

What follows are compounds tested against T1, human glucocorticoid receptor (GR) complex (Homo sapiens, UniProt P04150) (assay: Glucocorticoid receptor competitive binding assay (fluorescence polarization)). Details: competition with TAMRA-labeled dexamethasone.
T1 construct: made in house; host or cells: insect expression system (baculovirus lysate)
T1 sequence (P04150 1-777): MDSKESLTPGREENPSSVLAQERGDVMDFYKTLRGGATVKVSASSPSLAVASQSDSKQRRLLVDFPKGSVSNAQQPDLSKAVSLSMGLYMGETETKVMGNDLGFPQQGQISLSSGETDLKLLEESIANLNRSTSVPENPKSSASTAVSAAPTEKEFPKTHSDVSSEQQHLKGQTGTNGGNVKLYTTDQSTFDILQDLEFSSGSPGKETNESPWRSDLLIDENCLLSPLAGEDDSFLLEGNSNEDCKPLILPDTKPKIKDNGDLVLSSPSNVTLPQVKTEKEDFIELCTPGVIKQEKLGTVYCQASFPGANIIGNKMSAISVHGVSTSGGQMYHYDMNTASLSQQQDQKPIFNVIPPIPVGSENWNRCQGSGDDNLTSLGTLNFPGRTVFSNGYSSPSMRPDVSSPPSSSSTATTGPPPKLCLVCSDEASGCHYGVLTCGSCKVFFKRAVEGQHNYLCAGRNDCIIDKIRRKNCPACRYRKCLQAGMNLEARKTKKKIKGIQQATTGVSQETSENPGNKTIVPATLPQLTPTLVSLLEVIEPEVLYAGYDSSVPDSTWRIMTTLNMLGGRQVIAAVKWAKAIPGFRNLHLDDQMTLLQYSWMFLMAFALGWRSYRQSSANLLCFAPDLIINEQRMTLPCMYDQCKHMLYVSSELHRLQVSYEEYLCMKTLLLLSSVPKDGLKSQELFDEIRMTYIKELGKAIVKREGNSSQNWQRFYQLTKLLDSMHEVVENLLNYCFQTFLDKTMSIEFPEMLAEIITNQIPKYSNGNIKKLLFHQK
Method: Compounds of the invention were evaluated for binding to the steroid receptor by a fluorescence polarization competitive binding assay.
A. Glucocorticoid Receptor Competitive Binding Assay
Step 1. Characterization of the Fluorescent Probe
The wavelengths for maximum excitation and emission of the fluorescent probe should first be measured. An example of such a probe is rhodamine (TAMRA)-labeled dexamethasone.
The affinity of the probe for the steroid receptor was then determined in a titration experiment. The fluorescence polarization value of the probe in assay buffer was measured on an SLM-8100 fluorometer using the excitation and emission maximum values described above. Aliquots of expression vector lysate were added and fluorescence polarization was measured after each addition until no further change in polarization value was observed. Non-linear least squares regression analysis was used to calculate the dissociation constant of the probe from the polarization values obtained for lysate binding to the probe.
Step 2. Screening for Inhibitors of Probe Binding
This assay uses fluorescence polarization (FP) to quantitate the ability of test compounds to compete with tetramethyl rhodamine (TAMRA)-labeled dexamethasone for binding to a human glucocorticoid receptor (GR) complex prepared from an insect expression system. The assay buffer was: 10 mM TES, 50 mM KCl, 20 mM Na2MoO4.2H20, 1.5 mM EDTA, 0.04% w/v CHAPS, 10% v/v glycerol, 1 mM dithiothreitol, pH 7.4. Test compounds were dissolved to 1 mM in neat DMSO and then further diluted to 10× assay concentration in assay buffer supplemented with 10% v/v DMSO. Test compounds were serially diluted at 10× assay concentrations in 10% DMSO-containing buffer in 96-well polypropylene plates. Binding reaction mixtures were prepared in 96-well black Dynex microtiter plates by sequential addition of the following assay components to each well: 15 μL of 10× test compound solution, 85 μL of GR-containing baculovirus lysate diluted 1:170 in assay buffer, and 50 μL of 15 nM TAMRA-labeled dexamethasone. Positive controls were reaction mixtures containing no test compound; negative controls (blanks) were reaction mixtures containing 0.7 μM to 2 μM dexamethasone. […] IC50 values were determined by iterative non-linear curve fitting of the FP signal data to a 4-parameter logistic equation.

Activity in the GR binding assay, potent activity:
CC(C)(CC(O)(Cn1ccc(=O)c2ccccc21)C(F)(F)F)c1ccc(F)cc1 (centres unmarked) [1-[4-(4-Fluorophenyl)-2-hydroxy-4-methyl-2-trifluoromethylpentyl]-1H-quinolin-4-one]
COc1ccc(C(C)=O)cc1C(C)(C)CC(O)(Cn1ccc(=O)c2ccccc21)C(F)(F)F (centres unmarked) [1-[4-(5-Acetyl-2-methoxyphenyl)-2-hydroxy-4-methyl-2-trifluoromethylpentyl]-1H-quinolin-4-one]
CC(C)(CC(O)(Cn1ccc(=O)c2ccccc21)C(F)(F)F)c1cc(Br)ccc1O (centres unmarked) [1-[4-(5-Bromo-2-hydroxyphenyl)-2-hydroxy-4-methyl-2-trifluoromethylpentyl]-1H-quinolin-4-one]
COc1ccc(Br)cc1C(C)(C)CC(O)(Cn1ccc(=O)c2ccccc21)C(F)(F)F (centres unmarked) [1-[4-(5-Bromo-2-methoxyphenyl)-2-hydroxy-4-methyl-2-trifluoromethylpentyl]-1H-quinolin-4-one]
CC(C)(CC(O)(Cn1ccc(=O)c2ccccc21)C(F)(F)F)c1cc(Cl)cc2c1OCC2 (centres unmarked) [1-[4-(5-Chloro-2,3-dihydrobenzofuran-7-yl)-2-hydroxy-4-methyl-2-trifluoromethylpentyl]-1H-quinolin-4-one]
CC(C)(CC(O)(Cn1[nH]c(=O)c2ccccc21)C(F)(F)F)c1cc(F)ccc1O (centres unmarked) [1-[4-(5-Fluoro-2-hydroxyphenyl)-2-hydroxy-4-methyl-2-trifluoromethylpentyl]-1,2-dihydroindazol-3-one]
CC(C)(CC(O)(Cn1ccc(=O)c2ncccc21)C(F)(F)F)c1cc(F)ccc1O (centres unmarked) [1-[4-(5-Fluoro-2-hydroxyphenyl)-2-hydroxy-4-methyl-2-trifluoromethylpentyl]-1H-[1,5]naphthyridin-4-one]
Cc1cn(CC(O)(CC(C)(C)c2cc(F)ccc2O)C(F)(F)F)c(CO)c(C)c1=O (centres unmarked) [1-[4-(5-Fluoro-2-hydroxyphenyl)-2-hydroxy-4-methyl-2-trifluoromethylpentyl]-2-hydroxymethyl-3,5-dimethyl-1H-pyridin-4-one]
Cc1cn(CC(O)(CC(C)(C)c2cc(F)ccc2O)C(F)(F)F)cc(C)c1=O (centres unmarked) [1-[4-(5-Fluoro-2-hydroxyphenyl)-2-hydroxy-4-methyl-2-trifluoromethylpentyl]-3,5-dimethyl-1H-pyridin-4-one]
CC(C)(CC(O)(Cn1cc(CO)c(=O)c2ccccc21)C(F)(F)F)c1cc(F)ccc1O (centres unmarked) [1-[4-(5-Fluoro-2-hydroxyphenyl)-2-hydroxy-4-methyl-2-trifluoromethylpentyl]-3-hydroxymethyl-1H-quinolin-4-one]
COc1ccc(F)cc1C(C)(C)CC(C)(O)Cn1cc(C)c(=O)c(C)c1 (centres unmarked) [1-[4-(5-Fluoro-2-methoxyphenyl)-2-hydroxy-2,4-dimethylpentyl]-3,5-dimethyl-1H-pyridin-4-one]
COc1ccc(F)cc1C(C)(C)CC(O)(Cn1[nH]c(=O)c2ccccc21)C(F)(F)F (centres unmarked) [1-[4-(5-Fluoro-2-methoxyphenyl)-2-hydroxy-4-methyl-2-trifluoromethylpentyl]-1,2-dihydroindazol-3-one]
COc1ccc(F)cc1C(C)(C)CC(O)(Cn1ncc(=O)c2ccccc21)C(F)(F)F (centres unmarked) [1-[4-(5-Fluoro-2-methoxyphenyl)-2-hydroxy-4-methyl-2-trifluoromethylpentyl]-1H-cinnolin-4-one]
COc1ccc(F)cc1C(C)(C)CC(O)(Cn1ccc(=O)c2ccccc21)C(F)(F)F (centres unmarked) [1-[4-(5-Fluoro-2-methoxyphenyl)-2-hydroxy-4-methyl-2-trifluoromethylpentyl]-1H-quinolin-4-one]
COc1ccc(F)cc1C(C)(C)CC(O)(Cn1cc(C)c(=O)c(C)c1CO)C(F)(F)F (centres unmarked) [1-[4-(5-Fluoro-2-methoxyphenyl)-2-hydroxy-4-methyl-2-trifluoromethylpentyl]-2-hydroxymethyl-3,5-dimethyl-1H-pyridin-4-one]
COc1ccc(F)cc1C(C)(C)CC(O)(Cn1cc(CO)c(=O)c2ccccc21)C(F)(F)F (centres unmarked) [1-[4-(5-Fluoro-2-methoxyphenyl)-2-hydroxy-4-methyl-2-trifluoromethylpentyl]-3-hydroxymethyl-1H-quinolin-4-one]
COc1ccc(F)cc1C(C)(C)CC(O)(Cn1cc(C(F)(F)F)cc([N+](=O)[O-])c1=O)C(F)(F)F (centres unmarked) [1-[4-(5-Fluoro-2-methoxyphenyl)-2-hydroxy-4-methyl-2-trifluoromethylpentyl]-3-nitro-5-trifluoromethyl-1H-pyridin-2-one]
Cc1ccc(F)cc1C(C)(C)CC(O)(Cn1ccc(=O)c2ncccc21)C(F)(F)F (centres unmarked) [1-[4-(5-Fluoro-2-methylphenyl)-2-hydroxy-4-methyl-2-trifluoromethylpentyl]-1H-[1,5]naphthyridin-4-one]
Cc1ccc(F)cc1C(C)(C)CC(O)(Cn1cc(C)c(=O)c(C)c1)C(F)(F)F (centres unmarked) [1-[4-(5-Fluoro-2-methylphenyl)-2-hydroxy-4-methyl-2-trifluoromethylpentyl]-3,5-dimethyl-1H-pyridin-4-one]
COc1ccc(-c2ccoc2)cc1C(C)(C)CC(O)(Cn1ccc(=O)c2ccccc21)C(F)(F)F (centres unmarked) [1-[4-(5-Furan-3-yl-2-methoxyphenyl)-2-hydroxy-4-methyl-2-trifluoromethylpentyl]-1H-quinolin-4-one]
Cc1cc2c(c(C(C)(C)CC(O)(Cn3ccc(=O)c4ccccc43)C(F)(F)F)c1)OCC2 (centres unmarked) [1-[4-(5-Methyl-2,3-dihydrobenzofuran-7-yl)-2-hydroxy-4-methyl-2-trifluoromethylpentyl]-1H-quinolin-4-one]
COc1ccc(C2OCCCO2)cc1C(C)(C)CC(O)(Cn1ccc(=O)c2ccccc21)C(F)(F)F (centres unmarked) [1-[4-(5-[1,3]Dioxan-2-yl-2-methoxyphenyl)-2-hydroxy-4-methyl-2-trifluoromethylpentyl]-1H-quinolin-4-one]
CC(C)(CC(O)(Cn1ccc(=O)c2ccccc21)C(F)(F)F)c1cc(Br)cc2c1OCO2 (centres unmarked) [1-[4-(6-Bromobenzo[1,3]dioxol-4-yl)-2-hydroxy-4-methyl-2-trifluoromethylpentyl]-1H-quinolin-4-one]
CC(C)(CC(O)(Cn1ccc(=O)c2ccccc21)C(F)(F)F)c1ccccc1 (centres unmarked) [1-[4-Phenyl-2-hydroxy-4-methyl-2-trifluoromethylpentyl]-1H-quinolin-4-one]
CC(C)(CC(O)(Cn1ccc(=O)c2ccccc21)C(F)(F)F)c1cccc(C2(C)OCCO2)c1 (centres unmarked) [1-{2-Hydroxy-4-methyl-4-[3-(2-methyl-[1,3]dioxolan-2-yl)phenyl]-2-trifluoromethylpentyl}-1H-quinolin-4-one]
CC(=O)COc1cccc(C(C)(C)CC(O)(Cn2ccc(=O)c3ccccc32)C(F)(F)F)c1 (centres unmarked) [1-{2-Hydroxy-4-methyl-4-[3-(2-oxopropoxy)phenyl]-2-trifluoromethylpentyl}-1H-quinolin-4-one]
